Assay results as given in US20170326106A1, “TREATMENT OF AGE RELATED MACULAR DEGENERATION WITH A SMALL ACTIVE CHOROIDAL NEOVASCULARIZATION LESION” (BAYER HEALTHCARE LLC, priority 2014, published 2017).

How the values were obtained:
Format in all cases: in vivo, human
[1] = system: Chinese subjects with age-related neovascular or wet age-related macular degeneration; experiment: Same clinical study, central retinal thickness by optical coherence tomography
Procedure: (§1) A total of 304 Chinese subjects with age-related neovascular or wet age-related macular degeneration were enrolled in a randomized, double-blind clinical study to assess the efficacy of intravitreal (IVT) administrated aflibercept compared with V®-PDT on the mean change in BCVA (Best corrected visual acuity) from baseline to Week 28. BCVA of the study eye was assessed according to the standard procedures developed for the ETDRS (Early Treatment Diabetic Retinopathy Study) adapted for Age Related Eye Disease Study (AREDS). The key inclusion criteria were as follows: • Signed and dated written ICF. • Men and women ≧50 years of age. • Active predominantly classic, subfoveal choroidal neovascularization (CNV) lesions secondary to AMD, including juxtafoveal lesions that affect the fovea, as evidenced by fluorescein angiography (FA), in the study eye. • The area of the CNV had to occupy at least 50% of the total lesion. • ETDRS best corrected visual acuity (BCVA) of 73 to 25 letters in the study eye (Snellen activity equivalent of 20/40 to 20/320 in the study eye).
(§2) The following key exclusion criteria applied for the study eye: • Total lesion size is greater than 12 disc areas (30.5 mm^2, including blood, scars and neovascularization), as assessed by FA • Sub-retinal hemorrhages that is >50% of the total lesion area, or if the blood is under the fovea and is 1 or more disc areas in size. (If the blood is under the fovea, then the fovea must be surrounded by 270 degrees by visible CNV.) • Presence of CNV with an origin other than wAMD. History or clinical evidence of diabetic retinopathy, diabetic macular edema or any retinal vascular disease other than wAMD. Particular attention should be made to exclude subjects with polypoidal choroidal vasculopathy (PCV). • Presence of scar, fibrosis, or atrophy involving the center of the fovea that indicates substantial irreversible vision loss. • Presence of retinal pigment epithelial tears or rips involving the macula.
(§3) Eligible patients were randomized 3:1 to receive aflibercept (VTE) 2Q8 or V®-PDT (228 VTE+76 PDT). 194 patients with active CNV lesions >=50% (147 VTE2Q8+47 PDT) and 106 patients with active CNV lesions <50% (78 VTE2Q8+28 PDT) were included. The lesion size was determined by a central reading center based on the MPS protocol [Macular Photocoagulation Study Group, Arch Ophthalmol 1991, 109:1242-1257]. The active CNV size, the area of CNV (mm^2) as well as the total lesion size was measured using the FA. The central retinal thickness was determined by optical coherence tomography. In the VTE2Q8 group patients were treated with 2 mg (0.05 mL) aflibercept administered intravitreally at baseline, week 4, 8, 16, 24, 32, 40 and 48. […]

[2] = system: Chinese subjects with age-related neovascular or wet age-related macular degeneration; experiment: Same clinical study, CNV lesion size by fluorescein angiography (MPS protocol)
Procedure: as §1, §2, §3

[3] = system: Chinese subjects with age-related neovascular or wet age-related macular degeneration; experiment: Randomized double-blind clinical study, BCVA of the study eye by ETDRS
Procedure: as §1, §2
Eligible patients were randomized 3:1 to receive aflibercept (VTE) 2Q8 or V®-PDT (228 VTE+76 PDT). 194 patients with active CNV lesions >=50% (147 VTE2Q8+47 PDT) and 106 patients with active CNV lesions <50% (78 VTE2Q8+28 PDT) were included. The lesion size was determined by a central reading center based on the MPS protocol [Macular Photocoagulation Study Group, Arch Ophthalmol 1991, 109:1242-1257]. The active CNV size, the area of CNV (mm^2) as well as the total lesion size was measured using the FA. The central retinal thickness was determined by optical coherence tomography. In the VTE2Q8 group patients were treated with 2 mg (0.05 mL) aflibercept administered intravitreally at baseline, week 4, 8, 16, 24, 32, 40 and 48. In the PDT group V®-PDT was performed at baseline and potential PDT retreatment according to the guidelines for the use of PDT treatment in wAMD [Verteporfin Roundtable Participants, Retina. 2005; 25(2):119-34] were performed at week 12 and 24. At Week 28, after assessment of the primary and secondary endpoints, subjects in the PDT→VEGF Trap-Eye group received an IVT injection of 2.0 mg VEGF Trap-Eye, followed by additional 2.0 mg VEGF Trap-Eye injections at Weeks 32, 36, 40, and 48.

[4] = active CNV lesion <50%, week 28
[5] = active CNV lesion <50%, week 52, PDT group on VEGF Trap-Eye from week 28
[6] = active CNV lesion >=50%, week 28
[7] = active CNV lesion >=50%, week 52, PDT group on VEGF Trap-Eye from week 28

Question: Which “Mean change in central retinal thickness” value [1, 4] does the source give for Aflibercept [VTE2Q8] here?
Answer: −180.6 um

Question: What about the “Mean change in central retinal thickness” value [1, 5] of the same substance?
Answer: −185.5 um

Question: And the “Mean change in central retinal thickness” value [1, 6]?
Answer: −180.4 um

Question: And the “Mean change in central retinal thickness” value [1, 7]?
Answer: −192.1 um

Question: And the “Mean change in CNV lesion size” value [2, 4]?
Answer: −0.688 mm^2

Question: And the “Mean change in CNV lesion size” value [2, 5]?
Answer: −0.688 mm^2

Question: And the “Mean change in CNV lesion size” value [2, 6]?
Answer: −1.009 mm^2

Question: What about the “Mean change in CNV lesion size” value [2, 7] of the same substance?
Answer: −1.173 mm^2

Question: What about the “Mean change of BCVA” value ([3]; active CNV lesion <50% of total lesion size, week 28, from baseline) of the same substance?
Answer: 16.7 letters

Question: And the “Mean change of BCVA” value ([3]; active CNV lesion <50% of total lesion size, week 28, from baseline, listed as aflibercept)?
Answer: 16.7 (−21 to 59) letters

Question: And the “Mean change of BCVA” value ([3]; active CNV lesion <50% of total lesion size, week 52, from baseline, PDT group received IVT 2.0 mg VEGF Trap-Eye from week 28)?
Answer: 18.1 letters

Question: What about the “Proportion of patients who gained 5 or more letters” value [3, 4] of the same substance?
Answer: 85.9%

Question: What about the “Proportion of patients who gained 10 or more letters” value [3, 4] of the same substance?
Answer: 73.1%

Question: What about the “Proportion of patients who gained 15 or more letters” value [3, 4] of the same substance?
Answer: 57.7%

Question: What about the “Proportion of patients who lost 5 or more letters” value [3, 4] of the same substance?
Answer: 5.1%

Question: And the “Proportion of patients who lost 10 or more letters” value [3, 4]?
Answer: 3.8%

Question: And the “Proportion of patients who lost 15 or more letters” value [3, 4]?
Answer: 2.6%

Question: And the “Proportion of patients who maintained vision (letter loss <15 letters)” value (from here on “Proportion … (letter loss <15 letters)”) [3, 4]?
Answer: 97.4%

Question: What about the “Proportion of patients who gained 5 or more letters” value [3, 5] of the same substance?
Answer: 88.5%

Question: And the “Proportion of patients who gained 10 or more letters” value [3, 5]?
Answer: 78.2%

Question: And the “Proportion of patients who gained 15 or more letters” value [3, 5]?
Answer: 69.2%

Question: And the “Proportion of patients who lost 5 or more letters” value [3, 5]?
Answer: 6.4%

Question: And the “Proportion of patients who lost 10 or more letters” value [3, 5]?
Answer: 3.8%

Question: And the “Proportion of patients who lost 15 or more letters” value [3, 5]?
Answer: 3.8%

Question: What about the “Proportion … (letter loss <15 letters)” value [3, 5] of the same substance?
Answer: 96.2%

Question: And the “Mean change of BCVA” value ([3]; active CNV lesion >=50% of total lesion size, week 28, from baseline)?
Answer: 12.7 letters

Question: And the “Mean change of BCVA” value ([3]; active CNV lesion >=50% of total lesion size, week 28, from baseline, listed as aflibercept)?
Answer: 12.7 (−29 to 40) letters

Question: And the “Mean change of BCVA” value ([3]; active CNV lesion >=50% of total lesion size, week 52, from baseline, PDT group received IVT 2.0 mg VEGF Trap-Eye from week 28)?
Answer: 14.0 letters

Question: And the “Proportion of patients who gained 5 or more letters” value [3, 6]?
Answer: 77.6%

Question: What about the “Proportion of patients who gained 10 or more letters” value [3, 6] of the same substance?
Answer: 66.7%

Question: What about the “Proportion of patients who gained 15 or more letters” value [3, 6] of the same substance?
Answer: 45.6%

Question: What about the “Proportion of patients who lost 5 or more letters” value [3, 6] of the same substance?
Answer: 6.8%

Question: What about the “Proportion of patients who lost 10 or more letters” value [3, 6] of the same substance?
Answer: 2.7%

Question: And the “Proportion of patients who lost 15 or more letters” value [3, 6]?
Answer: 0.7%

Question: What about the “Proportion … (letter loss <15 letters)” value [3, 6] of the same substance?
Answer: 99.3%

Question: What about the “Proportion of patients who gained 5 or more letters” value [3, 7] of the same substance?
Answer: 78.9%

Question: And the “Proportion of patients who gained 10 or more letters” value [3, 7]?
Answer: 67.3%

Question: What about the “Proportion of patients who gained 15 or more letters” value [3, 7] of the same substance?
Answer: 53.1%

Question: And the “Proportion of patients who lost 5 or more letters” value [3, 7]?
Answer: 8.2%

Question: And the “Proportion of patients who lost 10 or more letters” value [3, 7]?
Answer: 4.1%

Question: What about the “Proportion of patients who lost 15 or more letters” value [3, 7] of the same substance?
Answer: 2.0%

Question: And the “Proportion … (letter loss <15 letters)” value [3, 7]?
Answer: 98.0%

Question: What about the “mean change from baseline BCVA letter score” value ([3]; whole study population irrespective of the active CNV lesion size, week 28, range in brackets) of the same substance?
Answer: 14.0 (−29 to 59)
